Assay [1] relates to S. obliquus transformants containing the codA transgene. Kind of assay: Plating on TAP agar containing 5-fluorocytosine, codA transformants of S. obliquus. In kind it is cell-based, Scenedesmus obliquus. The conditions noted are these: 1 mg/mL 5FC. The text has this:
In this example, a nucleic acid encoding cytosine deaminase gene (codA) from E. coli was introduced into S. obliquus. Transforming DNA is shown graphically in FIG. 23. In this instance the DNA segment labeled “codA cr” is the codA encoding gene (SEQ ID NO: 27, codA), the segment labeled “psbD” is the promoter and 5′ UTR for the psbD gene from S. dimorphus, the segment labeled “D1 3′” is the 3′ UTR for the psbA gene from […], and the segment labeled “CAT” is the chloramphenicol acetyl transferase gene (CAT) from E. coli, which is regulated by the promoter and 5′ UTR sequence for the tufA gene from S. dimorphus and the 3′ UTR sequence for the rbcL gene from S. dimorphus. The transgene expression cassette and selection marker are targeted to the S. obliquus chloroplast genome via the segments labeled “Homology A” and “Homology B” which are approximately 1000 bp fragments homologous to sequences of DNA adjacent to nucleotide 071,366 (Site 1; nucleotide locations according to the sequence available from NCBI for S. obliquus, NC—008101) on the 5′ and 3′ sides, respectively. All DNA segments were cloned into pUC19. All DNA manipulations carried out in the construction of this transforming DNA were essentially as described by Sambrook et al., Molecular Cloning: A Laboratory Manual (Cold Spring Harbor Laboratory Press 1989) and Cohen et al., Meth. Enzymol. 297, 192-208, 1998. […]

In a further assay the test system is Wildtype S. dimorphus. Nature of the assay: Plating on TAP agar containing 5-fluorocytosine, wild type. The assay is classed as cell-based, Scenedesmus dimorphus. The following applies: 1 mg/mL 5FC. The method, then: To determine if functional codA is produced by transformed algae cells, cells were grown in TAP media to log phase, pelleted and resuspended to 10^8 cells/mL and plated onto TAP agar medium containing 1 mg/mL 5-fluorocytosine (5FC).
To determine if functional codA is produced by transformed algae cells, cells were plated onto TAP agar medium containing 1 mg/mL 5-fluorocytosine (5FC).

Assay [2] has as its system S. dimorphus transformants containing the codA transgene. Kind of assay: Plating on TAP agar containing 5-fluorocytosine, codA transformants. The assay is classed as cell-based, Scenedesmus dimorphus. The following applies: 1 mg/mL 5FC. The text has this:
In this example, a nucleic acid encoding cytosine deaminase gene (codA) from E. coli was introduced into S. dimorphus. Transforming DNA is shown graphically in FIG. 23. In this instance the DNA segment labeled “codA cr” is the codA encoding gene (SEQ ID NO: 31, codA), the segment labeled “psbD” is the promoter and 5′ UTR for the psbD gene from S. dimorphus, the segment labeled “D1 3′” is the 3′ UTR for the psbA gene from S. dimorphus, and the segment labeled “CAT” is the chloramphenicol acetyl transferase gene (CAT) from E. coli, which is regulated by the promoter and 5′ UTR sequence for the tufA gene from S. dimorphus and the 3′ UTR sequence for the rbcL gene from S. dimorphus. The transgene expression cassette and selection marker are targeted to the S. dimorphus chloroplast genome via the segments labeled “Homology A” and “Homology B” which are approximately 1000 bp fragments homologous to sequences of DNA adjacent to nucleotide 071,366 (Site 1; nucleotide locations according to the sequence available from NCBI for S. obliquus, NC—008101) on the 5′ and 3′ sides, respectively. All DNA segments were cloned into pUC19. All DNA manipulations carried out in the construction of this transforming DNA were essentially as described by Sambrook et al., Molecular Cloning: A Laboratory Manual (Cold Spring Harbor Laboratory Press 1989) and Cohen et al., Meth. Enzymol. 297, 192-208, 1998. […]

A further assay relates to wild type S. dimorphus. Nature of the assay: Growth in HSM with various concentrations of DCMU or atrazine, wild type. In kind it is cell-based, Scenedesmus dimorphus. The following applies: constant light 50-100 uE with CO2 enrichment, 4 days.
In assay [3] the test system is S. dimorphus DCMU transformants (CAT cassette). Nature of the assay: Patching of DCMU-selected CAT-cassette transformants onto TAP agar with chloramphenicol. The following applies: TAP agar medium containing 25 μg/mL CAM. The assay is classed as cell-based, Scenedesmus dimorphus. The text has this:
In order to determine if DCMU selection could result in incorporation of an expression cassette downstream of the psbA gene, A vector was constructed containing an expression cassette consisting of an endogenous promoter, a chloramphenicol acetyltransferase (CAT) gene, and an endogenous terminator cloned ˜500 bp downstream of the S264A/XbaI mutated psbA gene fragment from S. dimorphus and including the rpl20 gene. Transforming DNA is shown graphically in FIG. 4. In this instance the DNA segment labeled “CAT” is the chloramphenicol acetyl transferase gene from E. coli, the segment labeled “tufA” is the promoter and 5′ UTR sequence for the tufA gene from S. dimorphus, and the segment labeled “rbcL” is the 3′ UTR for the rbcL gene from S. dimorphus. The selection marker cassette is targeted to the S. dimorphus chloroplast genome via the segments labeled “Homology A2” and “Homology B2” which are 1000 bp fragments homologous to sequences of DNA adjacent to nucleotide 065,353 and include an S264A/XbaI mutated partial psbA coding sequence, its 3′UTR, and the rpl20 coding sequence. This vector targets integration of the selection marker cassette approximately 400 bp 3′ of the stop codon of the psbA gene.
Transforming DNA was introduced into S. dimorphus via particle bombardment (as described in EXAMPLE 1) with DNA carried on 550 nm gold particles, @500 psi and a shooting distance of 4 cm. […]

`Nc1nc(=O)[nH]cc1F` [5FC, 5-fluorocytosine]: the “survival on TAP agar containing 5FC” value was “did not” in assay [1], “survived” in the assay with Wildtype S. dimorphus and “do not” in assay [2].

As to `CCNc1nc(Cl)nc(NC(C)C)n1` [Atrazine], the “concentration in which cells fail to grow” value in the assay with wild type S. dimorphus worked out at 0.5 µM.

In the case of `O=C(N[C@H](CO)[C@H](O)c1ccc([N+](=O)[O-])cc1)C(Cl)Cl` [CAM, chloramphenicol], the “resistance of transformants to chloramphenicol” value in assay [3] is listed as “resistant”.

`CN(C)C(=O)Nc1ccc(Cl)c(Cl)c1` [DCMU, 3-(3,4-Dichlorophenyl)-1,1-dimethylurea]: in the assay on wild type S. dimorphus, the “concentration in which cells fail to grow” value is 0.5 µM.

For the origin of these results see patent US20120252054A1, “SYSTEM FOR TRANSFORMATION OF THE CHLOROPLAST GENOME OF SCENEDESMUS SP. AND DUNALIELLA SP” (priority 2009, published 2012).
